Assay results published in ChEMBL document CHEMBL4017462, “Antiplasmodial β-triketones from the flowers of the Australian tree Angophora woodsiana” (Bioorg Med Chem Lett, 2017).

Assays:
Plasmodium falciparum [1] = assay: Antiplasmodial activity against chloroquine-sensitive Plasmodium falciparum 3D7 measured after 72 hrs by DAPI staining based high throughput screening assay; type: functional; conditions: 3D7, 72 h
[2] = Growth inhibition of HEK293 cells at 20 uM relative to control; type: cell-based; conditions: human, read-out: GI
[3] = Growth inhibition of HEK293 cells at 100 uM relative to control; type: cell-based; conditions: human, read-out: GI
Plasmodium falciparum [4] = assay: Antiplasmodial activity against chloroquine-resistant Plasmodium falciparum Dd2 measured after 72 hrs by DAPI staining based high throughput screening assay; type: functional; conditions: Dd2, 72 h
HEK293 = assay: Growth inhibition of HEK293 cells; type: cell-based; conditions: Homo sapiens
[5] = Selectivity index, ratio of IC50 for HEK293 cells to IC50 for chloroquine-resistant Plasmodium falciparum Dd2; type: toxicity; conditions: human; read-out: Ratio IC50
Plasmodium falciparum [6] = assay: Antiplasmodial activity against chloroquine-sensitive Plasmodium falciparum 3D7; type: functional
Plasmodium falciparum [7] = assay: Antiplasmodial activity against chloroquine-resistant Plasmodium falciparum Dd2; type: functional
[8] = Growth inhibition of HEK293 cells at 120 uM relative to control; type: cell-based; conditions: human, read-out: GI
[9] = Growth inhibition of HEK293 cells at 40 uM relative to control; type: cell-based; conditions: human, read-out: GI
Plasmodium falciparum [10] = assay: Antiplasmodial activity against chloroquine-resistant Plasmodium falciparum Dd2 at 40 uM measured after 72 hrs by DAPI staining based high throughput screening assay relative to control; type: functional

Question: Which IC50 (Plasmodium falciparum [1]) does the source give for C[C@H]1[C@H](OC(=O)CCC(=O)O)O[C@@H]2O[C@@]3(C)CC[C@H]4[C@H](C)CC[C@@H]1[C@@]24OO3 [ARTESUNATE] here?
Answer: Its IC50 is 1 nM.

Question: And the inhibition at 20 µM [2]?
Answer: Its inhibition at 20 µM is 94%.

Question: For CC(C)CC(=O)c1c(O)cc(O)c2c1O[C@@]1(C(C)C)OC3=C(C(=O)C(C)(C)C(=O)C3(C)C)[C@@H]21, which IC50 (Plasmodium falciparum [1]) is on record?
Answer: The IC50 was 10500 nM.

Question: And the inhibition at 100 µM [3]?
Answer: Its inhibition at 100 µM is 59%.

Question: Which results are given for CC(C)C[C@H]1C2=C(O[C@@]3(C)C=C4[C@@H](C[C@@H]13)[C@@H](C)CC[C@@H]4C(C)C)C(C)(C)C(=O)C(C)(C)C2=O?
Answer: IC50 (Plasmodium falciparum [1]): 26900 nM; inhibition at 100 µM [3]: 68%

Question: With C=C1CC[C@H]2[C@H](CC(C)C)C3=C(O[C@]2(C)CC[C@@H]2[C@@H]1CC2(C)C)C(C)(C)C(=O)C(C)(C)C3=O as the molecule, how does the IC50 (Plasmodium falciparum [1]) read?
Answer: The IC50 was 11300 nM.

Question: With CC(C)CC(=O)c1c(O)cc2c(c1O)[C@@H](CC(C)C)C1=C(O2)C(C)(C)C(=O)C(C)(C)C1=O as the molecule, how does the IC50 (Plasmodium falciparum [1]) read?
Answer: Its IC50 is 1800 nM.

Question: And the IC50 (Plasmodium falciparum [4])?
Answer: Its IC50 is 4000 nM.

Question: And the IC50 (HEK293)?
Answer: The IC50 was 11400 nM.

Question: And the selectivity ratio [5]?
Answer: The selectivity ratio was less than 10.

Question: Which IC50 (Plasmodium falciparum [1]) does the source give for C=C1CC[C@H]2[C@@H](CC(C)C)C3=C(O[C@]2(C)CC[C@@H]2[C@@H]1CC2(C)C)C(C)(C)C(=O)C(C)(C)C3=O here?
Answer: The IC50 was 8900 nM.

Question: Which results are given for CC(C)CC(C1=C(O)C(C)(C)C(=O)C(C)(C)C1=O)C1=C(O)C(C)(C)C(=O)C(C)(C)C1=O?
Answer: IC50 (Plasmodium falciparum [1]): 440 nM; IC50 (Plasmodium falciparum [6]): 5300 nM; IC50 (Plasmodium falciparum [7]): 8800 nM; inhibition at 120 µM [8]: 42%

Question: With CC(C)[C@]12OC3=C(C(=O)C(C)(C)C(=O)C3(C)C)[C@H]1C1=C(O2)C(C)(C)C(=O)C(C)(C)C1=O as the molecule, how does the IC50 (Plasmodium falciparum [1]) read?
Answer: Its IC50 is 14000 nM.

Question: For CC(C)C[C@H]1C[C@@]2(CC[C@H]3C[C@@H]2C3(C)C)OC2=C1C(=O)C(C)(C)C(=O)C2(C)C, which IC50 (Plasmodium falciparum [1]) is on record?
Answer: Its IC50 is 6700 nM.

Question: For Cc1c2c(c(O)c3c1OC1=C(C(=O)C(C)(C)C(=O)C1(C)C)[C@@H]3CC(C)C)C(=O)C[C@@H](c1ccccc1)O2, which IC50 (Plasmodium falciparum [1]) is on record?
Answer: The IC50 was 10700 nM.

Question: For Cc1c(O)c(C(=O)CCc2ccccc2)c2c(c1O)[C@@H]1C3=C(O[C@]1(C(C)C)O2)C(C)(C)C(=O)C(C)(C)C3=O, which IC50 (Plasmodium falciparum [1]) is on record?
Answer: The IC50 was 1070 nM.

Question: And the IC50 (Plasmodium falciparum [6])?
Answer: The IC50 was 290 nM.

Question: What about the IC50 (Plasmodium falciparum [7]) of the same molecule?
Answer: The IC50 was 440 nM.

Question: And the inhibition at 120 µM [8]?
Answer: The inhibition at 120 µM was 85%.

Question: For COc1ccc2nc3cc(Cl)ccc3c(Nc3cc(CN4CCCC4)c(O)c(CN4CCCC4)c3)c2n1 [PYRONARIDINE], which IC50 (Plasmodium falciparum [1]) is on record?
Answer: Its IC50 is 11.9 nM.

Question: What about the IC50 (Plasmodium falciparum [4]) of the same molecule?
Answer: The IC50 was 18 nM.

Question: What about the IC50 (HEK293) of the same molecule?
Answer: Its IC50 is 5220 nM.

Question: What does the source list for COc1ccc(C[C@H](N)C(=O)N[C@H]2[C@@H](O)[C@H](n3cnc4c(N(C)C)ncnc43)O[C@@H]2CO)cc1 [PUROMYCIN]?
Answer: IC50 (Plasmodium falciparum [4]): 61 nM; IC50 (HEK293): 399 nM

Question: What does the source list for CC(C)CC(=O)c1c(O)c2c(c3c1O[C@]1(C(C)C)OC4=C(C(=O)C(C)(C)C(=O)C4(C)C)[C@H]31)OC1=C(C(=O)C(C)(C)C(=O)C1(C)C)[C@@H]2CC(C)C?
Answer: IC50 (Plasmodium falciparum [6]): 1000 nM; IC50 (Plasmodium falciparum [7]): 1490 nM

Question: Which results are given for CC(C)C[C@@H]1OC12C(=O)C(C)(C)C(=O)C(C)(C)C2=O?
Answer: IC50 (Plasmodium falciparum [1]): 3000 nM; IC50 (Plasmodium falciparum [4]): 2530 nM; IC50 (HEK293): 15900 nM; selectivity ratio [5]: < 10

Question: For CCc1nc(N)nc(N)c1-c1ccc(Cl)cc1 [PYRIMETHAMINE], which IC50 (Plasmodium falciparum [1]) is on record?
Answer: The IC50 was 8 nM.

Question: What about the inhibition at 40 µM [9] of the same molecule?
Answer: The inhibition at 40 µM was 62%.

Question: What about the Activity (Plasmodium falciparum [10]) of the same molecule?
Answer: Its Activity is 62%.
